Experiments:
[1] = system: Argentine ant, Linepithema humile; test: Knockdown/mortality of ant workers under continuous exposure on treated glazed tile; settings: continuous exposure; for Average % Mortality after 15 min: adjuvant = Compound A 1% + Compound B 0.5%
How it was run: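 0.5% AI imidacloprid in acetone, alone or with 0.1, 1.0 or 5.0% additive (benzenepropanoic acid, oleic acid, methyl oleate, methyl linoleate, methyl palmitate or BHA), 1 ml dried overnight on glazed tile (~161 cm^2). Ten workers confined under continuous exposure, water from 3 h; knockdown/mortality scored at intervals and 24 h; ≥3 replicates.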

[2] = system: Odorous House ant, Tapinoma sessile; test: as above; format: in vivo; settings: Table 59, Odorous House ant, glazed tile, continuous exposure; for Average % Knockdown & Mortality after 15 min: adjuvant = Compound A 1% + Compound B 0.5%
How it was run: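 Each tile surface (about 5″×5″) was treated, left to dry overnight and tested in a minimum of three replicates.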

[3] = system: Red Imported Fire ant (RIFA), Solenopsis invicta; test: as above; format: in vivo; settings: for Average % Mortality after 1 hr / Average % Mortality after 1.5 hr / Average % Mortality after 2 hr / Average % Mortality after 3 hr / Average % Mortality after 30 min: Table 60, Red Imported Fire ant, continuous exposure; for Average % Mortality after 30 min: adjuvant = Compound A 1% + Compound B 0.5%
Text: Treatments were allowed to dry overnight. […] Treatments were replicated minimum three times.
(§1) Treatments were allowed to dry overnight. […] Treatments were replicated a minimum of three times.

[4] = system: susceptible/normal German cockroach (Monheim strain), Blattella germanica; test: Knockdown/mortality of male cockroaches under continuous exposure on treated glazed tile; format: in vivo; settings: glazed tile; for Average % Knockdown & Mortality after 3 hr / Average % Knockdown & Mortality after 5 hr / Average % Knockdown & Mortality after 24 hr / Average % Knockdown & Mortality after 1 hr: Table 61, German cockroach (Monheim), continuous exposure; for Average % Knockdown & Mortality after 1 hr: adjuvant = Compound A 1% + Compound B 0.5%
How it was run: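 Male cockroaches continuously exposed on treated glazed tile, dried overnight before exposure; at least three replicates. Knockdown/mortality scored at intervals from 5 or 10 min, over runs lasting 20 min to 24 h depending on test.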

[5] = system: housefly, Musca domestica; test: Housefly continuous exposure on treated glazed tile (paper cup arena); format: in vivo; settings: Table 58, housefly, glazed tile, continuous exposure; for Average % Knockdown & Mortality after 1 hr: adjuvant = Compound A 1% + Compound B 0.5%
Text: Treatments were allowed to dry overnight. The housefly testing arena consisted of a 16 oz. paper cup where the bottom of the cup was removed and replaced with a piece of standard window screen. Ten adult houseflies (mixed ratio) were placed in each cup and covered with a 4″×5″ index card to prevent escape. Houseflies were continuously exposed to the treatment by inverting the testing arena and sliding the cup from the index card to the treated tile surface. Treatments were replicated a minimum of three times.

[6] = system: bait averse/resistant German cockroach (IHOP strain), Blattella germanica; test: Knockdown/mortality of male cockroaches under continuous exposure on treated glazed tile; format: in vivo; settings: German cockroach IHOP
Protocol: Treatments were allowed to dry overnight. […] Treatments were replicated a minimum of three times. Evaluations for cockroach knockdown/mortality were made at various intervals for 1 hour and at 24 hours after exposure.
Treatments were allowed to dry overnight. […] Evaluations for cockroach knockdown/mortality were made at various intervals and at 60 minutes after exposure.
as §1

[7] = Table 57, Argentine ant, glazed tile

Structure (SMILES)	Average % Mortality after 30 min [1, 7] [%]	Average % Mortality after 45 min [1, 7] [%]	Average % Mortality after 60 min [1, 7] [%]	Average % Mortality after 15 min [1, 7] [%]	Average % Knockdown & Mortality after 30 min [2] [%]	Average % Knockdown & Mortality after 45 min [2] [%]	Average % Knockdown & Mortality after 60 min [2] [%]	Average % Knockdown & Mortality after 2 hr [2] [%]	Average % Knockdown & Mortality after 15 min [2] [%]	Average % Mortality after 1 hr ([3]; glazed tile) [%]	Average % Mortality after 1.5 hr ([3]; glazed tile) [%]	Average % Mortality after 2 hr ([3]; glazed tile) [%]	Average % Mortality after 3 hr ([3]; glazed tile) [%]	Average % Mortality after 30 min ([3]; glazed tile) [%]	Average % Knockdown & Mortality after 3 hr [4] [%]	Average % Knockdown & Mortality after 5 hr [4] [%]	Average % Knockdown & Mortality after 24 hr [4] [%]	Average % Knockdown & Mortality after 1 hr [4] [%]	Average % Knockdown & Mortality after 3 hr [5] [%]	Average % Knockdown & Mortality after 5 hr [5] [%]	further results
CC[S+]([O-])c1c(C#N)nn(-c2c(Cl)cc(C(F)(F)F)cc2Cl)c1N (stereo not shown) [Ethiprole (0.1%)]	0	0	0	0	0	0	0	0	0	0	0	0	10	0	27	33	80	0	0	3	Average % Knockdown & Mortality after 7 hr [5]: 10%; Average % Knockdown & Mortality after 24 hr [5]: 100%; Average % Knockdown & Mortality after 1 hr [5]: 0%
CC[S+]([O-])c1c(C#N)nn(-c2c(Cl)cc(C(F)(F)F)cc2Cl)c1N (stereo not shown) [Ethiprole (0.01%)]	0	0	0	0	0	0	0	3	0	0	0	0	3	0	0	7	13	0	0	0	Average % Mortality after 10 min ([1]; Table 54, Trial 1, acetone solution on glazed tile): 0%; Average % Mortality after 30 min ([1]; Table 54, Trial 1, glazed tile): 0%; Average % Mortality after 60 min ([1]; Table 54, Trial 1, glazed tile): 0%; Average % Mortality after 90 min ([1]; Table 54, Trial 1, glazed tile): 0%; Average % Mortality after 2 hr ([1]; Table 54, Trial 1, glazed tile): 0%; Average % Mortality after 4 hr ([1]; Table 54, Trial 1, glazed tile, 4 hr): 16%; Average % Mortality after 24 hr ([1]; Table 54, Trial 1, glazed tile): 100%; Average % Mortality after 10 min ([1]; Table 55, Trial 2, glazed tile): 0%; Average % Mortality after 30 min ([1]; Table 55, Trial 2, glazed tile): 0%; Average % Mortality after 60 min ([1]; Table 55, Trial 2, glazed tile): 0%; Average % Mortality after 90 min ([1]; Table 55, Trial 2, glazed tile): 0%; Average % Mortality after 2 hr ([1]; Table 55, Trial 2, glazed tile): 0%; Average % Mortality after 3 hr ([1]; Table 55, Trial 2, glazed tile, 3 hr): 6%; Average % Mortality after 24 hr ([1]; Table 55, Trial 2, glazed tile): 72%; Average % Knockdown & Mortality after 7 hr [5]: 3%; Average % Knockdown & Mortality after 24 hr [5]: 100%; Average % Knockdown & Mortality after 1 hr [5]: 0%
CC1(C)C(C=C(Cl)Cl)C1C(=O)OCc1cccc(Oc2ccccc2)c1 (stereo not shown) [permethrin, reference compound]	–	–	–	–	–	–	–	–	–	–	–	–	–	–	–	–	–	–	–	–	toxicity / efficacy of the substance alone (summary in words) [6]: very fast acting; toxicity / efficacy of the substance alone (summary in words) ([3]; RIFA, glazed tile): active; time at which near 100% mortality was achieved ([3]; permethrin 0.5% AI with or without adjuvant (FIG. 39)): about 13 minutes; toxicity / efficacy of the substance alone (summary in words) ([4]; German cockroach Monheim): effective
